Measurements published in paper PMC5294914 (Cell host & microbe, 2016).
pKd: −log10 of the molar value.

Biological target: FmlH (Escherichia coli, UniProt A0A0H2V7F6)
Assay: solution binding study

**Q.** With OC[C@H]1OC(O)[C@H](O)[C@@H](O)[C@H]1O (stereo partly drawn) [D-Gal] as the molecule, how does the pKd read?
**A.** 3.20
